Results reported in US20250122211A1, “NITROGEN-CONTAINING TETRACYCLIC COMPOUND, PREPARATION METHOD THEREFOR, AND MEDICAL USE THEREOF” (Jiangsu Hengrui Pharmaceuticals Co., Ltd., priority 2021, published 2025).
Where two headings read alike, the source gives them in different places.

Legend:
Type in all cases: cell-based
H358 cells = assay: H358 proliferation assay (CellTiter-Glo); settings: 120 h incubation, read-out: IC50 (nM), inhibitory activity against H358 cell proliferation
Description: The inhibitory activity of the compounds of the present disclosure against H358 cell proliferation was measured. Below is a brief description of the experimental method: H358 cells (ATCC, CRL-5807) were cultured in RPMI1640 medium (Hyclone, SH30809.01) containing 10% fetal bovine serum (Corning, 35-076-CV) (i.e., complete medium). On the first day of the experiment, H358 cells were seeded into a 96-well plate at a density of 1200 cells/well using complete medium, with 100 μL of cell suspension per well, and the plate was incubated overnight in a 37° C., 5% CO2 cell incubator. On the second day, the test compounds, prepared in complete medium and serially diluted, were added at 10 μL/well. The final concentrations of the compounds were 9 concentration points obtained by a 5-fold serial dilution from 10 μM. A blank control containing 0.5% DMSO was set up. The plate was incubated for 120 h in a 37° C., 5% CO2 cell incubator. On the seventh day, the 96-well cell plate was removed from the incubator, and CellTiter-Glo® Luminescent Cell Viability Assay (Promega, G7573) was added at 50 μL/well. After 10 min of room temperature incubation, luminescence signals were measured using a multifunctional microplate reader (PerkinElmer, EnVision® 2105). The IC50 values for the inhibitory activity of the compounds were calculated using Graphpad Prism software.

[1] = system: ERK phosphorylation in H358 cells; assay: H358 cell ERK phosphorylation inhibition assay (HTRF pERK/total ERK); settings: 3 h incubation, ratio of pERK/total ERK, read-out: IC50 (nM), inhibitory effects on ERK phosphorylation in H358 cells
Description: The inhibitory effects of the compounds of the present disclosure on ERK phosphorylation in H358 cells were measured. Below is a brief description of the experimental method: H358 cells (ATCC, CRL-5807) were cultured in RPMI1640 medium (Hyclone, SH30809.01) containing 10% fetal bovine serum (Corning, 35-076-CV) (i.e., complete medium). On the first day of the experiment, H358 cells were seeded into a 96-well plate at a density of 25,000 cells/well using complete medium, with 190 μL of cell suspension per well, and the plate was incubated overnight in a 37° C., 5% CO2 cell incubator. On the second day, the test compounds, prepared in complete medium and serially diluted, were added at 10 μL/well. The final concentrations of the compounds were 9 concentration points obtained by a 6-fold serial dilution from 10 μM. A blank control containing 0.5% DMSO was set up. The plate was incubated for 3 h in a 37° C., 5% CO2 cell incubator. After 3 h, the 96-well cell culture plate was removed from the incubator, and the culture medium was pipetted off. PBS (Shanghai BasalMedia Technologies Co., Ltd., B320) was added at 200 μL/well for a single wash. PBS was pipetted off, and lysis buffer (Cisbio, 64KL1FDF) containing a blocking agent (Cisbio, 64KB1AAC) was added at 50 μL/well. The plate was incubated on a shaker for 30 min at room temperature to lyse the cells. After lysis, the lysates were well mixed by pipetting, and 16 μL of lysate was transferred from each well to two HTRF 96-well assay plates (Cisbio, 66PL96100). Subsequently, 4 μL of a premixed phospho-ERK1/2 antibody solution (Cisbio, 64AERPEG) or 4 μL of a premixed total-ERK1/2 antibody solution (Cisbio, 64NRKPEG) was added to each of the plates. The plates were sealed with a plate sealer film, centrifuged for 1 min in a microplate centrifuge, and incubated overnight at room temperature in the dark. On the third day, fluorescence values at an excitation wavelength of 337 nm and emission wavelengths of 665 nm and 620 nm were measured using a PHERAstar multifunctional microplate reader (BMG Labtech, PHERAstar FS). The IC50 values for the inhibitory activity of the compounds were calculated using Graphpad Prism software, based on the compound concentration and the ratio of pERK/total ERK.

MIA PaCa-2 cells = assay: MIA PaCa-2 cell proliferation assay (CellTiter-Glo); settings: 72 h incubation, read-out: IC50 (nM), inhibitory activity against MIA PaCa-2 cell proliferation
Description: The inhibitory activity of the compounds of the present disclosure against MIA PaCa-2 cell proliferation was measured. Below is a brief description of the experimental method:
MIA PaCa-2 cells (ATCC, CRL-1420) were cultured in DMEM/HIGH GLUCOSE medium (GE, SH30243.01) containing 10% fetal bovine serum (Corning, 35-076-CV) and 2.5% horse serum (Beyotime Biological Tech., C0262) (i.e., complete medium). On the first day of the experiment, MIA PaCa-2 cells were seeded into a 96-well plate at a density of 500 cells/well using complete medium, with 90 µL of cell suspension per well, and the plate was incubated overnight in a 37° C., 5% CO2 cell incubator. On the second day, the test compounds, prepared in complete medium and serially diluted, were added at 10 μL/well. The final concentrations of the compounds were 9 concentration points obtained by a 5-fold serial dilution from 10 μM. A blank control containing 0.5% DMSO was set up. The plate was incubated for 72 h in a 37° C., 5% CO2 cell incubator. On the fifth day, the 96-well cell plate was removed from the incubator, and CellTiter-Glo® Luminescent Cell Viability Assay (Promega, G7573) was added at 50 μL/well. After 10 min of room temperature incubation, luminescence signals were measured using a multifunctional microplate reader (PerkinElmer, EnVision2015). The IC50 values for the inhibitory activity of the compounds were calculated using Graphpad Prism software.

Row | Structure (SMILES) | IC50 (H358 cells) | IC50 [1] | IC50 (MIA PaCa-2 cells) | IC50 (H358 cells; Homo sapiens, NCI-H358, 120 h) | IC50 ([1]; Homo sapiens, NCI-H358, 3 h) | IC50 (MIA PaCa-2 cells; Homo sapiens, MIA PaCa-2, 72 h)
1 | C=CC(=O)N1CCN2C(=O)c3c(F)c(F)c(-c4ccc(F)c5sc(N)c(C#N)c45)c4cnn(c34)CC[C@H]2C1 (atropisomer, axis not shown) [Example 11-P1, (R)-4-((S)-10-Acryloyl-1,2-difluoro-14-oxo-8,8a,9,10,11,12-hexahydro-7H,14H-pyrazino[1′,2′:5.6][1,5]diazocino[3,2,1-hi]indazol-3-yl)-2-amino-7-fluorobenzo[b]thiophene-3-carbonitrile] | 2.25 nM | 7.67 nM | 2.71 nM | – | – | –
2 | C=CC(=O)N1CCN2C(=O)c3c(F)c(F)c(-c4ccc(F)c5sc(N)c(C#N)c45)c4cnn(c34)CC[C@H]2C1 (atropisomer, axis not shown) [Example 11-P2, (S)-4-((S)-10-Acryloyl-1,2-difluoro-14-oxo-8,8a,9,10,11,12-hexahydro-7H,14H-pyrazino[1′,2′:5.6][1,5]diazocino[3,2,1-hi]indazol-3-yl)-2-amino-7-fluorobenzo[b]thiophene-3-carbonitrile] | 0.32 nM | 0.09 nM | 0.46 nM | – | – | –
3 | C=CC(=O)N1CCN2C(=O)c3cc(F)c(-c4ccc(F)c5sc(N)c(C#N)c45)c4c(F)cn(c34)CC[C@H]2C1 (atropisomer, axis not shown) [Example 13-P2, (S)-4-((S)-10-Acryloyl-2,4-difluoro-14-oxo-8,8a,9,10,11,12-hexahydro-7H,14H-pyrazino[1′,2′:5.6][1,5]diazocino[3,2,1-hi]indol-3-yl)-2-amino-7-fluorobenzo[b]thiophene-3-carbonitrile] | – | – | – | 11.4 nM | 0.76 nM | 20.5 nM
4 | C=C(F)C(=O)N1CCN2C(=O)c3cc(F)c(-c4ccc(F)c5sc(N)c(C#N)c45)c4c(C)nn(c34)CC[C@H]2C1 (atropisomer, axis not shown) [Example 15-P1, (R)-2-Amino-7-fluoro-4-((S)-2-fluoro-10-(2-fluoroacryloyl)-4-methyl-14-oxo-8,8a,9,10,11,12-hexahydro-7H,14H-pyrazino[1′,2′:5,6][1,5]diazocino[3,2,1-hi]indazol-3-yl)benzo[b]thiophene-3-carbonitrile] | 41.6 nM | 19.7 nM | 56.8 nM | – | – | –
5 | C=C(F)C(=O)N1CCN2C(=O)c3cc(F)c(-c4ccc(F)c5sc(N)c(C#N)c45)c4c(C)nn(c34)CC[C@H]2C1 (atropisomer, axis not shown) [Example 15-P2, (S)-2-Amino-7-fluoro-4-((S)-2-fluoro-10-(2-fluoroacryloyl)-4-methyl-14-oxo-8,8a,9,10,11,12-hexahydro-7H,14H-pyrazino[1′,2′:5,6][1,5]diazocino[3,2,1-hi]indazol-3-yl)benzo[b]thiophene-3-carbonitrile] | 4.21 nM | 3.94 nM | 7.75 nM | – | – | –
6 | C=C(F)C(=O)N1CCN2C(=O)c3cc(F)c(-c4ccc(F)c5sc(N)c(C#N)c45)c4c(F)nn(c34)CC[C@H]2C1 (atropisomer, axis not shown) [Example 16-P2, (S)-2-Amino-4-((S)-2,4-difluoro-10-(2-fluoroacryloyl)-14-oxo-8,8a,9,10,11,12-hexahydro-7H,14H-pyrazino[1′,2′:5,6][1,5]diazocino[3,2,1-hi]indazol-3-yl)-7-fluorobenzo[b]thiophene-3-carbonitrile] | – | – | – | 8 nM | 1.06 nM | 4.56 nM
7 | C=C(F)C(=O)N1CCN2C(=O)c3cc(F)c(-c4ccc(F)c5sc(N)c(C#N)c45)c4c(Cl)nn(c34)CC[C@H]2C1 (atropisomer, axis not shown) [Example 17-P2, (S)-2-Amino-4-((S)-4-chloro-2-fluoro-10-(2-fluoroacryloyl)-14-oxo-8,8a,9,10,11,12-hexahydro-7H,14H-pyrazino[1′,2′:5,6][1,5]diazocino[3,2,1-hi]indazol-3-yl)-7-fluorobenzo[b]thiophene-3-carbonitrile] | – | – | – | 1.87 nM | 2 nM | 1.88 nM
8 | C=CC(=O)N1CCN2C(=O)c3cc(F)c(-c4ccc(F)c5sc(N)c(C#N)c45)c4c(C)cn(c34)CC[C@H]2C1 (atropisomer, axis not shown) [Example 18-P2, (S)-4-((S)-10-Acryloyl-2-fluoro-4-methyl-14-oxo-8,8a,9,10,11,12-hexahydro-7H,14H-pyrazino[1′,2′:5,6][1,5]diazocino[3,2,1-hi]indol-3-yl)-2-amino-7-fluorobenzo[b]thiophene-3-carbonitrile] | – | – | – | 9.57 nM | 1.09 nM | 9.16 nM
9 | C=CC(=O)N1CCN2C(=O)c3cc(F)c(-c4ccc(F)c5sc(N)c(C#N)c45)c4c(Cl)cn(c34)CC[C@H]2C1 (atropisomer, axis not shown) [Example 19-P2, (S)-4-((S)-10-Acryloyl-4-chloro-2-fluoro-14-oxo-8,8a,9,10,11,12-hexahydro-7H,14H-pyrazino[1′,2′:5,6][1,5]diazocino[3,2,1-hi]indol-3-yl)-2-amino-7-fluorobenzo[b]thiophene-3-carbonitrile] | – | – | – | 5.65 nM | 0.97 nM | 4.9 nM
10 | C=CC(=O)N1CCN2C(=O)c3cc(F)c(-c4ccc(F)c5sc(N)c(C#N)c45)c4nnn(c34)CC[C@H]2C1 (atropisomer, axis not shown) [Example 20-P1, (R)-4-((S)-9-Acryloyl-2-fluoro-12-oxo-7,7a,8,9,10,11-hexahydro-6H,12H-4,5,5a,9,11a-pentaazabenzo[5,6]cycloocta[1,2,3-cd]inden-3-yl)-2-amino-7-fluorobenzo[b]thiophene-3-carbonitrile] | 4.94 nM | 3.67 nM | 1.66 nM | – | – | –
11 | C=CC(=O)N1CCN2C(=O)c3cc(F)c(-c4ccc(F)c5sc(N)c(C#N)c45)c4nnn(c34)CC[C@H]2C1 (atropisomer, axis not shown) [Example 20-P2, (S)-4-((S)-9-Acryloyl-2-fluoro-12-oxo-7,7a,8,9,10,11-hexahydro-6H,12H-4,5,5a,9,11a-pentaazabenzo[5,6]cycloocta[1,2,3-cd]inden-3-yl)-2-amino-7-fluorobenzo[b]thiophene-3-carbonitrile] | – | 0.88 nM | – | 7.9 nM | – | 1.21 nM
